The IC50 is the point on the concentration scale where inhibition reaches its midpoint.

Consider 35 molecules from US9309212B2, “Compositions and methods for modulating the activity of Epstein-Barr nuclear antigen 1” (The Wistar Institute, priority 2011, dated 2016).

For data set [1], the target named is T1, EBNA1 (Epstein-Barr virus, UniProt P03211).
T1 construct: expressed in transfected cells; host or cells: 293T cells
Kind of data set: cell-based assay (EBNA1 transcription derepression assay, Qp-luciferase reporter in 293T cells). As to conditions: final concentration range 125 μM-2 nM, 125000 nM = not active. The procedure: EBNA1 Transcription Derepression Assay.
293T cells were seeded in 10-cm plates in DMEM media with 10% FBS. Following a 18-hour incubation at 37° C. to allow cells to adhere, cells at 50-70% confluence were transfected using 40 μL LIPOFECTAMINE (INVITROGEN) per plate. The cells were transfected with a 4 μg Qp-luciferase reporter plasmid (N1852) and 0.125 μg EBNA1 expression plasmid (N803) or 4 μg Qp-luciferase reporter plasmid (N1852) and 0.125 μg control plasmid (N799) (no EBNA) per plate. After 24 hours, the cells were harvested without trypsin, centrifuged 1200 RPM for 5 minutes and resuspended in DMEM media with 10% FBS at a concentration 100,000 cells per milliliter. Forty μL of this solution […] was dispensed to each well of the white plate using a BIOTEK MICROFLO Select Dispenser. Test compounds were added to achieve a final concentration range of 125 μM-2 nM, as described above. Cells were incubated at 37° C. for 48 hours, harvested and analyzed for luciferase activity using the PROMEGA STEADY-GLO luciferase system and read using a PERKIN ELMER 2104 Multilabel Reader.
Compounds were screened for activity in the cell-based assay disclosed herein.
For orientation: Reporter assays use an easily measured gene product as a stand-in for the process of interest.

In data set [2] the target is EBNA1 DNA binding domain (Human herpesvirus 4, UniProt P03211 SEQ:454-607). Put plainly: FP; 200 mM NaCl, 20 mM Tris-Cl pH 7.4, 1 mM DTT, 10 ug/mL BSA, 25 C; 5 nM probe; probe performed significantly better in FP than in EMSA comparison. Conditions: tags: hexa-histidine, E. coli expressed; chain copies: 2; label: CY5 (opl 3016) or FITC (opl 4624); hairpin. (Mobility shift assays separate free from complexed probe on a gel.)
Chain of EBNA1 DNA binding domain (P03211 454-607): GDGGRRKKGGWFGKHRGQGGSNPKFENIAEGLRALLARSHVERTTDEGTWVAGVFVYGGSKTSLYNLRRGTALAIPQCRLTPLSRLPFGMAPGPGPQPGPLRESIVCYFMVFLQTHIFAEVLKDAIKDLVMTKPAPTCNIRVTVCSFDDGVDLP

T1 sequence (P03211 whole entry): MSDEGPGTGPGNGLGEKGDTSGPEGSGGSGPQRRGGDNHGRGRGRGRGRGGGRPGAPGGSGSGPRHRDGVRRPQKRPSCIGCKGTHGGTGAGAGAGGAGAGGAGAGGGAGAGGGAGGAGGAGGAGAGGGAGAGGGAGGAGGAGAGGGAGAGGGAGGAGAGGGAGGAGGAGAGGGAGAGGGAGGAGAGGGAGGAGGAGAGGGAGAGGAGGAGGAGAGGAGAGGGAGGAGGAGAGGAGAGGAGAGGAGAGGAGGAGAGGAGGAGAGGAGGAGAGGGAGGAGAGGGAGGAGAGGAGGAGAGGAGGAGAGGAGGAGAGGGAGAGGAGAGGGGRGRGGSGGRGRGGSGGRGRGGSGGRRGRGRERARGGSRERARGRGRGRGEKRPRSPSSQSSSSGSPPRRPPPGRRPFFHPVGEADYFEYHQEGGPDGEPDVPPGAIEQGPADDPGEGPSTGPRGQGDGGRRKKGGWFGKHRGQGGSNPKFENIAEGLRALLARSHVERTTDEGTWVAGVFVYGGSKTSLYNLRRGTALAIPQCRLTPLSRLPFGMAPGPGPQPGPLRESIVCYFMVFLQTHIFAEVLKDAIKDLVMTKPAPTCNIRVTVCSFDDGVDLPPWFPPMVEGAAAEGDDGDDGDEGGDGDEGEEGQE

Take `O=C(Oc1ccc(Cl)cc1)c1ccc2occc2c1` [VKE01441]: in data set [1], the IC50 amounted to 9.06 µM.
Still for that read-out and setting: next, `CC(C)(C)c1ccc(OC(=O)c2ccc3occc3c2)cc1` [VKE01442]: 2.63 µM.
The same measure, in the same setting: the figure for `O=C(Cc1ccc(Cl)cc1Cl)Oc1ccc2occ([N+](=O)[O-])c2c1` [VKE01443] is more than 125 µM; for `O=C(Oc1ccc2occ([N+](=O)[O-])c2c1)c1cccnc1` [VKE01444] it is more than 125 µM.
Molecule `O=C(Oc1ccc2occ([N+](=O)[O-])c2c1)c1ccncn1` [VKE01445] registered a concentration for half-maximal inhibition (IC50) in data set [1] of more than 125 µM.
The molecule `O=C(Oc1ccc2occ([N+](=O)[O-])c2c1)c1ncccc1C(F)(F)F` [VKE01446] registered an IC50 in data set [1] of more than 125 µM.
In turn, `O=C(Oc1ccc2occ([N+](=O)[O-])c2c1)c1ccno1` [VKE01447] returned a 50% inhibitory concentration (IC50) in data set [1] of more than 125 µM.
In the case of `O=C(Oc1ccc2occ([N+](=O)[O-])c2c1)c1ccc(N2CCOCC2)cc1` [VKE01448], the IC50 in data set [1] came to 30.6 µM.
In data set [1], `O=C(Oc1ccc2occ([N+](=O)[O-])c2c1)c1ccccc1C(F)(F)F` [VKE01449] came in with a half-maximal inhibitory concentration (IC50) of more than 125 µM.
`CCc1ccccc1C(=O)Oc1ccc2occ([N+](=O)[O-])c2c1` [VKE01450] showed a 50% inhibitory concentration (IC50) in data set [1] of 9.02 µM.
Regarding `O=C(Oc1ccc2occ([N+](=O)[O-])c2c1)c1ccc(F)cc1Cl` [VKE01451], the midpoint of inhibition in data set [1], the IC50, lay at 3.28 µM.
On the same count and under the same terms, the figure for `Cc1cc(C)cc(CC(=O)Oc2ccc3occ([N+](=O)[O-])c3c2)c1` [VKE01452] is more than 125 µM; for `CCCCc1ccc(C(=O)Oc2ccc3occ([N+](=O)[O-])c3c2)cc1` [VKE01453] it is 1.24 µM.
The molecule `O=[N+]([O-])c1coc2ccc(OCc3ccc(Cl)cc3)cc12` [VKE01454] registered an IC50 in data set [1] of 9.78 µM.
The molecule `O=[N+]([O-])c1coc2ccc(OCc3ccccc3)cc12` [VKE01455] came in with a half-inhibitory concentration (IC50) in data set [1] of 27.2 µM.
On to `O=[N+]([O-])c1coc2ccc(OCc3ccc(OC(F)(F)F)cc3)cc12` [VKE01456], for which inhibition in data set [1] was half-maximal at 14 µM (IC50).
Same read-out and setting: the figure for `O=C(Nc1ccc2occc2c1)c1ccc(F)cc1Cl` [VKE01457] is 0.0189 µM.
In data set [1], `O=C(Nc1ccc2occc2c1)c1ccc(C(F)(F)F)cc1` [VKE01458] displayed a 50% inhibitory concentration (IC50) of 0.00476 µM.
`O=C(Nc1ccc2occc2c1)c1ccccc1C(F)(F)F` [VKE01459] returned a half-inhibitory concentration (IC50) in data set [1] of 6.52 µM.
On the same count and under the same terms, the figure for `CCCCc1ccc(C(=O)Nc2ccc3occc3c2)cc1` [VKE01460] is 0.0123 µM; for `CCc1ccccc1C(=O)Nc1ccc2occc2c1` [VKE01461] it is 1.02 µM; for `O=C(Nc1ccc2occc2c1)c1ccc(N2CCOCC2)cc1` [VKE01462] it is 0.298 µM.
The same measure, in the same setting: the figure for `O=C(Nc1ccc2occc2c1)c1cccnc1` [VKE01463] is 1.26 µM; for `O=C(Nc1ccc2occc2c1)c1ncccc1C(F)(F)F` [VKE01464] it is 1.09 µM; for `O=C(Nc1ccc2occc2c1)c1ccncn1` [VKE01465] it is 1.66 µM.
Same read-out and setting: next, `O=C(Nc1ccc2occc2c1)c1ccno1` [VKE01466]: 83.8 µM; `O=C(Nc1ccccc1F)c1ccc2occc2c1` [VKE01467]: 0.674 µM.
With `O=C(Nc1cccc(Cl)c1)c1ccc2occc2c1` [VKE01468], the IC50 in data set [1] came out at 0.813 µM.
Same read-out and setting: the figure for `CC(C)(C)c1ccc(NC(=O)c2ccc3occc3c2)cc1` [VKE01469] is 0.0627 µM; for `Cc1cc(NC(=O)c2ccc3occc3c2)ccc1Cl` [VKE01470] it is 0.042 µM.
The same measure, in the same setting: the figure for `O=C(Nc1ccc(F)c(F)c1)c1ccc2occc2c1` [VKE01471] is 0.847 µM; for `O=C(Nc1ccccn1)c1ccc2occc2c1` [VKE01472] it is 0.152 µM; for `O=C(Nc1ccncc1)c1ccc2occc2c1` [VKE01473] it is 20.8 µM.
The same measure, in the same setting: next, `Cc1csc(NC(=O)c2ccc3occc3c2)n1` [VKE01474]: 0.0602 µM.
With GGGTAGCATATGCTATCTAGATAGCATATGCTACCC (structured_DNA) [EBNA1 BS Hairpin (opl 3016 / opl 4624)], the binding result in data set [2] is recorded as “binds”.
